According to patent US20240173317A1, “METHODS FOR TREATING PROGRESSIVE FAMILIAL INTRAHEPATIC CHOLESTASIS” (MIRUM PHARMACEUTICALS, INC., priority 2022, published 2024):

Experiments:
[1] = tested on: patients with a truncated BSEP (t-BSEP) deficiency; assay: sBA in individual t-BSEP patients (week 26 and week 58 of treatment); assay type: in vivo, human
[2] = tested on: participants with ALGS; assay: sBA in participants with ALGS aged 16 years and older; assay type: in vivo, human
Protocol: (§1) All patients received the daily dose appropriate for their weight, with an adult maximum dose of 28.5 mg/d. ^bBefore age 16 years is defined as the last data point prior to turning 16 years of age. After age 16 years is defined as the first data point after turning 16 years of age.
(§2) FIGS. 31A and 31B show a change in ltchRO(Obs) (FIG. 31A) and sBA (FIG. 31B) for participants who initiated MRX treatment at <16 years of age (n=11). Of 11 participants, 9 had ItchRO(Obs) scores available for all time points and were included in the analysis. ^bItchRO(Obs) is a 0-4 scale with >1-point reduction considered clinically meaningful. Mean ItchRO(Obs) was rounded to 1 decimal place. Error bars represent SE. Significance was determined using student t test. ^cMean sBA was rounded to the nearest whole number. Error bars represent SE. ^dAverage of last 2 records prior to age 16 years. ^eAverage of first 2 records after age 16 years. ^fAverage of final 2 records.
(§3) FIGS. 32A and 32B show a change in ltchRO(Obs) (FIG. 32A) and sBA (FIG. 32B) for participants who Initiated MRX treatment at ≥16 years of age (n=3). ^aItchRO(Obs) is 0-4 scale with ≥1-point reduction considered clinically meaningful. ^bAverage of final two records.
(§4) The efficacy and safety of MRX in participants with ALGS aged ≥16 years transitioning to adult care and participant aged ≥16 years who initiate MRX treatment were studied (FIG. 30). […]

[3] = tested on: participants with ALGS; assay: ItchRO(Obs) pruritus in participants with ALGS aged 16 years and older; assay type: in vivo, human
Protocol: as §1, §2, §3, §4

[4] = tested on: patients with PFIC; assay: TEAEs, MARCH-ON long-term extension; assay type: in vivo, human
Protocol: (§5) Eighty-five patients from MARCH trial enrolled in MARCH-ON (Table 10, FIG. 29A). Forty-seven patients had received Maralixibat (MRX-MRX) and 38 had received placebo (PBO-MRX) during MARCH trial.
(§6) Methods: Long-term maintenance of response was assessed for patients who were originally randomized to receive MRX in MARCH and continued with treatment in MARCH-ON (MRX-MRX group; n=33). MRX response was assessed for patients who received PBO in the MARCH study and switched to open-label MRX in MARCH-ON (PBO-MRX group; n=24). Assessments included: pruritus measured by 0-4 scale of ItchRO[Obs], sBA, bilirubin, and growth z-scores, as well as incidence of treatment-emergent adverse events(TEAEs). Baseline (BL) was defined as the start of MRX for each group.

[5] = tested on: participants with ALGS; assay: TEAEs in participants with ALGS aged 16 years and older; assay type: in vivo, human
Source text: The efficacy and safety of MRX in participants with ALGS aged ≥16 years transitioning to adult care and participant aged ≥16 years who initiate MRX treatment were studied (FIG. 30). The median (min, max) duration of therapy for participants who initiated MRX at <16 years of age was 4.1 years (1.5, 5.9), with the oldest patient taking MRX (Table 13). Three participants began MRX at ≥16 years of age and were followed for a median of 3.8 years.

[6] = tested on: patients with PFIC; assay: Bilirubin, MARCH-ON long-term extension; assay type: in vivo, human; conditions: MRX-MRX group; Baseline through Week 52
Source text: as §5
PFIC subtypes of patients included in the study were: non-truncated bile salt export pump (nt-B SEP, n=27), familial intrahepatic cholestasis-associated protein type 1 (F1C1, n=13); multidrug-resistance 3 protein (MDR3, n=9); tight junction protein 2 (TJP2, n=6); myosin VB (MYO5B, n=2); heterozygosis (n=2); truncated B SEP (t-B SEP, n=9); variant not found (n=8), fluctuating sBA (n=2); and surgery (n=7). Efficacy analyses included n=33 in the MRX-MRX group and n=24 in the PRO-MRX group. Subtypes nt-BSEP, F1C1, MDR3, TJP2, and MYO5B were included in the efficacy analyses. Baseline was defined as the start of maralixibat (MRX) treatment for each group.
as §6, with “Baseline (BL) was defined as the start of MRX for each group.” left out

[7] = tested on: subjects with PFIC; assay: Total and direct bilirubin, MARCH-PFIC Phase 3 study
Source text: Estimates are from a mixed model for repeated measures (MMRM) with change from baseline as the dependent variable and fixed categorical effects of treatment group, time period and treatment-by-time period interaction as well as the continuous fixed covariates of average baseline score and baseline score-by-time period interaction. […] Average of time periods Weeks 15-18, 19-22, and 2326 obtained from the MMRM as an equally weighted average of the 3 individual visit-specific estimates.
Methods: MARCH enrolled patients with a genetic diagnosis of PFIC, pruritus, and elevated sBA. Patients were randomized to MRX 57011 g/kg BID or placebo (PBO) for 26 weeks. Changes were determined as the difference between MRX and PBO groups for Change from Baseline (CFB) to the average of the final 3 measurements (Weeks 18, 22 and 26) using a mixed-effects model with recurrent measurements. Total/direct bilirubin (TB/DB) categories were defined as normal (≤1.2/0.3 mg/dL) or abnormal (>1.2/0.3 mg/dL).

[8] = ALGS, aged <16 y at MRX initiation (n = 11), After 16 y
[9] = ALGS, aged <16 y at MRX initiation (n = 11), Before 16 y
[10] = ALGS, aged >16 y at MRX initiation (n = 3)
[11] = BSEP deficiency cohort, FIG. 20A
[12] = BSEP deficiency cohort, FIG. 22A
[13] = MRX group, post-hoc analysis, FIG. 38A-B
[14] = individuals with abnormal Baseline bilirubin, FIG. 37B

SMILES: CCCCC1(CCCC)CS(=O)(=O)c2ccc(N(C)C)cc2[C@@H](c2ccc(OCc3ccc(C[N+]45CCN(CC4)CC5)cc3)cc2)[C@H]1O [maralixibat, 1-(4-((4-((4R,5R)-3,3-dibutyl-7-(dimethylamino)-4-hydroxy-1,1-dioxido-2,3,4,5-tetrahydrobenzo[b]thiepin-5-yl)phenoxy)methyl)benzyl)-1,4-diazabicyclo[2.2.2]octan-1-ium]
- sBA change in individual t-BSEP patients ([1]; Baseline to Week 26, FIG. 42D): reductions from Baseline to Week 26 in sBA
- sBA reduction in individual t-BSEP patients ([1]; all patients receiving maralixibat (MRX-MRX) or switching from placebo (PBO-MRX), Table 15): meaningful sBA reduction
- improvements in sBA ([2]; MRX during childhood, maintained into early adulthood, FIG. 31B): significant improvements
- improvements in sBA ([2]; participants receiving MRX in early adulthood, FIG. 32B): significant improvements
- improvements in pruritus (ItchRO(Obs)) ([3]; MRX during childhood, maintained into early adulthood, FIG. 31A): significant improvements
- improvements in pruritus (ItchRO(Obs)) ([3]; participants receiving MRX in early adulthood, FIG. 32A): significant improvements
- Any TEAE, % ([4]; MRX-MRX (n = 47)): (1M)
- Most common TEAE: diarrhoea, % ([4]; MRX-MRX (n = 47)): (63.8) %
- Serious TEAE, % ([4]; MRX-MRX (n = 47)): (17.0) %
- Severe TEAE, % ([4]; MRX-MRX (n = 47)): (10.6) %
- TEAE leading to death, % ([4]; MRX-MRX (n = 47)): (2.1) %
- TEAE leading to discontinuation, % ([4]; MRX-MRX (n = 47)): (6.4) %
- Any TEAE, % ([4]; PBO-MRX (n = 38)): (92.1) %
- Most common TEAE: diarrhoea, % ([4]; PBO-MRX (n = 38)): (34.2) %
- Serious TEAE, % ([4]; PBO-MRX (n = 38)): (15.0) %
- Severe TEAE, % ([4]; PBO-MRX (n = 38)): (5.3) %
- early onset of diarrhea (most frequent TEAE) ([4]; overall): 51%
- new safety signals ([4]; overall): no new safety signals
- tolerability ([5]; ALGS participants aged 16 years and older): generally well tolerated
- Any TEAEs, % [5, 8]: (63.6) %
- Gastrointestinal TEAEs: Abdominal pain, % [5, 8]: (18.2) %
- Gastrointestinal TEAEs: Diarrhoea, % [5, 8]: (9.1) %
- SAEs, % [5, 8]: (9.1) %
- TEAEs > grade 3, % [5, 8]: (9.1) %
- Treatment-related AEs, % [5, 8]: (18.2) %
- Any TEAEs, % [5, 9]: (100) %
- Gastrointestinal TEAEs: Abdominal pain, % [5, 9]: (45.5) %
- Gastrointestinal TEAEs: Diarrhoea, % [5, 9]: (54.5) %
- SAEs, % [5, 9]: (18.2) %
- TEAEs > grade 3, % [5, 9]: (9.1) %
- Treatment-related AEs, % [5, 9]: (81.8) %
- Any TEAEs, % [5, 10]: (100) %
- Gastrointestinal TEAEs: Diarrhoea, % [5, 10]: (33.3) %
- TEAEs > grade 3, % [5, 10]: (33.3) %
- Treatment-related AEs ≥ grade 3, % [5, 10]: (33.3) %
- Treatment-related AEs, % [5, 10]: (66.7) %
- bilirubin, change from Baseline [6]: -2.64 mg/dL
- CFB in total bilirubin (TB) ([7]; All-PFIC cohort (MRX n = 33), average of Weeks 18, 22 and 26, FIG. 36A): -1.1 mg/dL
- CFB in direct bilirubin (DB) ([7]; All-PFIC cohort (MRX n = 33), average of Weeks 18, 22 and 26, FIG. 36B): -0.8 mg/dL
- TB group difference MRX vs PBO ([7]; All-PFIC cohort, average of Weeks 18, 22 and 26, FIG. 36A): 2.0
- DB group difference MRX vs PBO ([7]; All-PFIC cohort, average of Weeks 18, 22 and 26, FIG. 36B): 1.5
- difference in total bilirubin improvement vs placebo group [7, 11]: 1.585 mg/dL
- improvement in (reduction of) total bilirubin relative to baseline [7, 11]: about 1.2 mg/dL
- difference in direct bilirubin improvement vs placebo group [7, 12]: 1.196 mg/dL
- improvement in (reduction of) direct bilirubin relative to baseline [7, 12]: over 0.8 mg/dL
- TB normalized, patients / patients with abnormal Baseline values [7, 13]: 10/25
- patients who went from normal to abnormal TB [7, 13]: 0/7
- DB frequency of normalization ([7]; MRX group, post-hoc analysis, normal ≤0.3 mg/dL, FIG. 39): 38%
- TB normalized, % of patients with abnormal Baseline values ([7]; MRX group, post-hoc analysis, normal ≤1.2 mg/dL, FIG. 38A-B): 40%
- difference in total bilirubin improvement vs placebo group ([7]; PFIC cohort, FIG. 20B): 2.000 mg/dL
- improvement in (reduction of) total bilirubin relative to baseline ([7]; PFIC cohort, FIG. 20B): about 1.2 mg/dL
- difference in direct bilirubin improvement vs placebo group ([7]; PFIC cohort, FIG. 22B): 1.608 mg/dL
- improvement in (reduction of) direct bilirubin relative to baseline ([7]; PFIC cohort, FIG. 22B): about 0.9 mg/dL
- total bilirubin lower than baseline over time ([7]; Week 18 and later points in time, FIG. 21A-B): at least 1.0 mg/dL
- direct bilirubin lower than baseline over time ([7]; Week 18 and later points in time, FIG. 23A-B): at least 1.0 mg/dL
- CFB in direct bilirubin (DB) [7, 14]: -0.8 mg/dL
- DB group difference MRX vs PBO [7, 14]: −1.8
